Some results are limits rather than exact numbers.

In the first test the test system is HUVEC. As to the kind of experiment: Antiproliferation activity against HUVEC cells after 48 hrs by CCK-8 assay. To be noted: Homo sapiens. It is filed as functional, cell-based. (Formazan colour is commonly taken as a measure of viable cells.)
`CCOC(=O)C(=O)O[C@@H]1CC[C@@]2(C)[C@@H](CC[C@]3(C)[C@@H]2C(=O)C=C2[C@@H]4[C@@H](C)[C@H](C)CC[C@]4(C)CC[C@]23C)[C@@]1(C)C(=O)O` displayed an IC50 greater than 100 µM.
`CC(=O)O[C@@H]1CC[C@@]2(C)[C@@H](CC[C@]3(C)[C@@H]2C(=O)C=C2[C@@H]4[C@@H](C)[C@H](C)CC[C@]4(C)CC[C@]23C)[C@@]1(C)C(=O)NCCN` came in with an IC50 of 3.76 µM.
Compound `CC(=O)O[C@@H]1CC[C@@]2(C)[C@@H](CC[C@]3(C)[C@@H]2C(=O)C=C2[C@@H]4[C@@H](C)[C@H](C)CC[C@]4(C)CC[C@]23C)[C@@]1(C)C(=O)NN` had a half-maximal inhibitory concentration (IC50) greater than 100 µM.
In turn, `CC(C)COC(=O)n1ncc2c1[C@](C)(C(=O)O)[C@@H]1CC[C@]3(C)[C@H](C(=O)C=C4[C@@H]5[C@@H](C)[C@H](C)CC[C@]5(C)CC[C@]43C)[C@@]1(C)C2` registered an IC50 of 3.12 µM.
Same read-out and setting: with `CC(=O)O[C@@H]1CC[C@@]2(C)[C@@H](CC[C@]3(C)[C@@H]2CC=C2[C@@H]4[C@@H](C)[C@H](C)CC[C@]4(C)CC[C@]23C)[C@@]1(C)C(=O)O` the figure was greater than 100 µM; with `C[C@H]1[C@H](C)CC[C@]2(C)CC[C@]3(C)C(=CC(=O)[C@@H]4[C@@]5(C)Cc6cnn(C(=O)Nc7ccccc7)c6[C@](C)(C(=O)O)[C@@H]5CC[C@]43C)[C@H]12`, 9.11 µM.
On the same count and under the same terms, the figure for `CCNC(=O)n1ncc2c1[C@](C)(C(=O)O)[C@@H]1CC[C@]3(C)[C@H](C(=O)C=C4[C@@H]5[C@@H](C)[C@H](C)CC[C@]5(C)CC[C@]43C)[C@@]1(C)C2` is 5.8 µM.
On the same count and under the same terms, the figure for `C[C@H]1[C@H](C)CC[C@]2(C)CC[C@]3(C)C(=CC(=O)[C@@H]4[C@@]5(C)Cc6c([nH]c7ccccc67)[C@](C)(C(=O)O)[C@@H]5CC[C@]43C)[C@H]12` is 8.22 µM; for `CC(=O)O[C@@H]1CC[C@@]2(C)[C@@H](CC[C@]3(C)[C@@H]2C(=O)C=C2[C@@H]4[C@@H](C)[C@H](C)CC[C@]4(C)CC[C@]23C)[C@@]1(C)C(=O)O` [AKBA] it is 7.45 µM; for `CC(=O)O[C@@H]1CC[C@@]2(C)[C@@H](CC[C@]3(C)[C@@H]2C(=O)C=C2[C@@H]4[C@@H](C)[C@H](C)CC[C@]4(C)CC[C@]23C)[C@@]1(C)C(=O)N1CCCCC1` it is 35.8 µM.
`CO/N=C1\CC[C@@]2(C)[C@@H](CC[C@]3(C)[C@@H]2C(=O)C=C2[C@@H]4[C@@H](C)[C@H](C)CC[C@]4(C)CC[C@]23C)[C@@]1(C)C(=O)O` showed an IC50 of 13.1 µM.
On the same count and under the same terms, with `CC(=O)N[C@H]1CC[C@@]2(C)[C@@H](CC[C@]3(C)[C@@H]2C(=O)C=C2[C@@H]4[C@@H](C)[C@H](C)CC[C@]4(C)CC[C@]23C)[C@@]1(C)C(=O)O` the figure was 47.5 µM.
On the same count and under the same terms, with `CC(=O)O[C@@H]1CC[C@@]2(C)[C@@H](CC[C@]3(C)[C@@H]2C(=O)C=C2[C@@H]4[C@@H](C)[C@H](C)CC[C@]4(C)CC[C@]23C)[C@@]1(C)C(=O)N(C)CCN(C)C` the figure was 5.05 µM.
The compound `C[C@H]1[C@H](C)CC[C@]2(C)CC[C@]3(C)C(=CC(=O)[C@@H]4[C@@]5(C)CC[C@@H](OC(=O)C(F)(F)F)[C@](C)(C(=O)O)[C@@H]5CC[C@]43C)[C@H]12` gave an IC50 of 5.13 µM.
Compound `C[C@H]1[C@H](C)CC[C@]2(C)CC[C@]3(C)C(=CC(=O)[C@@H]4[C@@]5(C)CC[C@H](O)[C@](C)(C(=O)O)[C@@H]5CC[C@]43C)[C@H]12` gave an IC50 of 27.2 µM.
Same read-out and setting: with `CC(=O)O[C@@H]1CC[C@]2(C)[C@H]3C(=O)C=C4[C@@H]5[C@@H](C)[C@H](C)CC[C@]5(C)CC[C@@]4(C)[C@]3(C)CC[C@H]2[C@@]1(C)C#N` the figure was greater than 100 µM; with `CC(=O)O[C@@H]1CC[C@@]2(C)[C@@H](CC[C@]3(C)[C@@H]2C(=O)C=C2[C@@H]4[C@@H](C)[C@H](C)CC[C@]4(C)CC[C@]23C)[C@@]1(C)C(=O)N1CCN(C)CC1`, 70.3 µM.
The same measure, in the same setting: the figure for `C[C@H]1[C@H](C)CC[C@]2(C)CC[C@]3(C)C(=CC(=O)[C@@H]4[C@@]5(C)Cc6cnn(C(=O)c7ccccc7)c6[C@](C)(C(=O)O)[C@@H]5CC[C@]43C)[C@H]12` is 6.31 µM.
In turn, `CC(=O)O[C@@H]1CC[C@@]2(C)[C@@H](CC[C@]3(C)[C@@H]2C(=O)C=C2[C@@H]4[C@@H](C)[C@H](C)CC[C@]4(C)CC[C@]23C)[C@@]1(C)C(=O)NC1CCNCC1` gave an IC50 of 8.23 µM.
Still for that read-out and setting: with `CC(=O)O[C@@H]1CC[C@@]2(C)[C@@H](CC[C@]3(C)[C@@H]2C(=O)C=C2[C@@H]4[C@@H](C)[C@H](C)CC[C@]4(C)CC[C@]23C)[C@@]1(C)C(=O)N1CCNCC1` the figure was 2.36 µM.
In the case of `CC(=O)O[C@@H]1CC[C@@]2(C)[C@@H](CC[C@]3(C)[C@@H]2C(=O)C=C2[C@@H]4[C@@H](C)[C@H](C)CC[C@]4(C)CC[C@]23C)[C@@]1(C)C(=O)N1CCCNCC1`, the concentration for half-maximal inhibition (IC50) is 2.79 µM.
The same measure, in the same setting: with `CC(=O)n1ncc2c1[C@](C)(C(=O)O)[C@@H]1CC[C@]3(C)[C@H](C(=O)C=C4[C@@H]5[C@@H](C)[C@H](C)CC[C@]5(C)CC[C@]43C)[C@@]1(C)C2` the figure was 9.27 µM; with `CC(=O)O[C@H]1CC[C@@]2(C)[C@@H](CC[C@]3(C)[C@@H]2C(=O)C=C2[C@@H]4[C@@H](C)[C@H](C)CC[C@]4(C)CC[C@]23C)[C@@]1(C)C(=O)O`, 35.8 µM; with `C[C@H]1[C@H](C)CC[C@]2(C)CC[C@]3(C)C(=CC(=O)[C@@H]4[C@@]5(C)CC[C@H](N)[C@](C)(C(=O)O)[C@@H]5CC[C@]43C)[C@H]12`, 5.32 µM.
The compound `CC(=O)O[C@@H]1CC[C@@]2(C)[C@@H](CC[C@]3(C)[C@@H]2C(=O)C=C2[C@@H]4[C@@H](C)[C@H](C)CC[C@]4(C)CC[C@]23C)[C@@]1(C)C(=O)Nc1ccncc1` yielded an IC50 greater than 100 µM.
Still for that read-out and setting: with `C[C@H]1[C@H](C)CC[C@]2(C)CC[C@]3(C)C(=CC(=O)[C@@H]4[C@@]5(C)CC/C(=N\O)[C@](C)(C(=O)O)[C@@H]5CC[C@]43C)[C@H]12` the figure was 10.8 µM; with `C[C@H]1[C@H](C)CC[C@]2(C)CC[C@]3(C)C(=CC(=O)[C@@H]4[C@@]5(C)Cc6cnoc6[C@](C)(C(=O)O)[C@@H]5CC[C@]43C)[C@H]12`, 9.92 µM.
`CCNC(=O)[C@]1(C)[C@@H]2CC[C@]3(C)[C@H](C(=O)C=C4[C@@H]5[C@@H](C)[C@H](C)CC[C@]5(C)CC[C@]43C)[C@@]2(C)CC[C@H]1OC(C)=O` gave an IC50 greater than 100 µM.
Take `COC(=O)[C@]1(C)[C@@H]2CC[C@]3(C)[C@H](C(=O)C=C4[C@@H]5[C@@H](C)[C@H](C)CC[C@]5(C)CC[C@]43C)[C@@]2(C)CC[C@H]1OC(C)=O`: 4.6 µM corresponded to half-maximal inhibition (IC50).
`CC(=O)O[C@@H]1CC[C@@]2(C)[C@@H](CC[C@]3(C)[C@@H]2C(=O)C=C2[C@@H]4[C@@H](C)[C@H](C)CC[C@]4(C)CC[C@]23C)[C@@]1(C)C(N)=O` came in with an IC50 of 5.02 µM.
In the case of `C[C@H]1[C@H](C)CC[C@]2(C)CC[C@]3(C)C(=CC(=O)[C@@H]4[C@@]5(C)Cc6cn[nH]c6[C@](C)(C(=O)O)[C@@H]5CC[C@]43C)[C@H]12`, the IC50 came to 2.13 µM.
Regarding `CC(=O)O[C@@H]1CC[C@@]2(C)[C@@H](CC[C@]3(C)[C@@H]2C(=O)C=C2[C@@H]4[C@@H](C)[C@H](C)CC[C@]4(C)CC[C@]23C)[C@@]1(C)C(=O)N1CCOCC1`, the IC50 is greater than 100 µM.

For a further test, the system named is HUVEC. As to the kind of experiment: Induction of apoptosis in HUVEC cells. The format is functional, cell-based. The settings on record: Homo sapiens.
Turning to `CC(=O)O[C@@H]1CC[C@@]2(C)[C@@H](CC[C@]3(C)[C@@H]2C(=O)C=C2[C@@H]4[C@@H](C)[C@H](C)CC[C@]4(C)CC[C@]23C)[C@@]1(C)C(=O)N1CCNCC1`, the Activity result was “Dose-dependent effect”.
As to `C[C@H]1[C@H](C)CC[C@]2(C)CC[C@]3(C)C(=CC(=O)[C@@H]4[C@@]5(C)Cc6cn[nH]c6[C@](C)(C(=O)O)[C@@H]5CC[C@]43C)[C@H]12`, the Activity result is “Dose-dependent effect”.

In general, IC50 refers to the concentration that inhibits the measured activity by half. Higher therefore signals weaker potency in that assay.

The record behind these values is ChEMBL document CHEMBL3399926, “Synthesis and structure-activity relationships of boswellic acid derivatives as potent VEGFR-2 inhibitors” (Bioorg Med Chem, 2015).
